Test results as given in patent US11655217B2, “Pyrazole MAGL inhibitors” (H. Lundbeck A/S, priority 2017, dated 2023).

Tests used:
[1] = target: MAGL (Mus musculus (Mouse), UniProt O35678); experiment: Mouse brain proteomes from inhibitor treated mice (oral gavage, sacrificed 4 h after administration, ABPP analysis); details: 5 mg/kg oral gavage
Description: (§1) Preparation of Mouse Brain Proteomes from Inhibitor Treated Mice.
(§2) Inhibitors were administered to wild-type C57Bl/6J by oral gavage in a vehicle of polyethylene glycol.

[2] = target: FAAH (Mus musculus (Mouse), UniProt O08914); experiment: Mouse brain proteomes from inhibitor treated mice (oral gavage, sacrificed 4 h after administration, ABPP analysis), FAAH; details: 5 mg/kg oral gavage
Chain of FAAH (O08914 whole entry): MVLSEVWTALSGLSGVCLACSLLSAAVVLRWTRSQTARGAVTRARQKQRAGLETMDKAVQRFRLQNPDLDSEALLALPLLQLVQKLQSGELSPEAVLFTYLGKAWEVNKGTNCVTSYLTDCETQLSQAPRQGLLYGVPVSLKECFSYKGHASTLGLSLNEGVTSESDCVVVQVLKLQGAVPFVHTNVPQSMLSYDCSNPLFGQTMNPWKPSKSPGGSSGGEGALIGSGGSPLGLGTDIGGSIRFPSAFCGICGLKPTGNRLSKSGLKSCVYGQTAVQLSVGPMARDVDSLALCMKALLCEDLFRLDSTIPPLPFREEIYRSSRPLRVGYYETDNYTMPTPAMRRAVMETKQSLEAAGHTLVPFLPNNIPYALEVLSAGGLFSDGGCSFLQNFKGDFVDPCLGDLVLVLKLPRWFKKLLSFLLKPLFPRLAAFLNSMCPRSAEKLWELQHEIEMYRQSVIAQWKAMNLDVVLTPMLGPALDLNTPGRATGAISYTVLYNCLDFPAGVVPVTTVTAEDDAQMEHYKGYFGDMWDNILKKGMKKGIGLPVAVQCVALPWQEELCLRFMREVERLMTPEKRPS
Description: as §1, §2

Chain of MAGL (O35678 whole entry): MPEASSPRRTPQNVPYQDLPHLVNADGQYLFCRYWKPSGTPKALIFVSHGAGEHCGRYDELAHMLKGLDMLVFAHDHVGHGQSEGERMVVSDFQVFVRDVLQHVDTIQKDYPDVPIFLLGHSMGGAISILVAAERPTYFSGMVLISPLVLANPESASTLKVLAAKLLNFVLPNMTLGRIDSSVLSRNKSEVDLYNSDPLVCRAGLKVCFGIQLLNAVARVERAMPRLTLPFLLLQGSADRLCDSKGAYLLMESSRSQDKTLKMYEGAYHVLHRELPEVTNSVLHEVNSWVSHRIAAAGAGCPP

Structure (SMILES) | MAGL % inh. 5 mg/kg (mouse) [1] | FAAH % inh. 5 mg/kg (mouse) [2]
O=C(O)c1ccn(C(=O)N2CC3CN(Cc4ccc(N5CCCC5)cc4C(F)(F)F)CC3C2)n1 (stereo not drawn) [Example 123, 1-(5-(4-(pyrrolidin-1-yl)-2-(trifluoromethyl)benzyl)octahydro-pyrrolo[3,4-c]pyrrole-2-carbonyl)-1H-pyrazole-3-carboxylic acid] | D (% inhibition is greater than or equal to 0% and less than 25%) | D (% inhibition is greater than or equal to 0% and less than 25%)
O=C(O)c1ccn(C(=O)N2CC3CN(Cc4cc(Cl)cc(C(F)(F)F)c4)CC3C2)n1 (stereo not drawn) [Example 124, 1-(5-(3-chloro-5-(trifluoromethyl)benzyl)octahydro-pyrrolo[3,4-c]pyrrole-2-carbonyl)-1H-pyrazole-3-carboxylic acid] | D (% inhibition is greater than or equal to 0% and less than 25%) | C (% inhibition is greater than or equal to 25% and less than 50%)
Cc1cn(C(=O)N2CCC3(CCN(Cc4cc(Cl)ccc4C(F)(F)F)C3)CC2)nc1C(=O)O [Example 130, 1-(2-(5-chloro-2-(trifluoromethyl)benzyl)-2,8-diazaspiro[4.5]decane-8-carbonyl)-4-methyl-1H-pyrazole-3-carboxylic acid] | D (% inhibition is greater than or equal to 0% and less than 25%) | D (% inhibition is greater than or equal to 0% and less than 25%)
O=C(O)c1nn(C(=O)N2CCN(Cc3cccc(Oc4ccc(Cl)cc4)c3)CC2)cc1Cl [Example 132, 4-chloro-1-(4-(3-(4-chlorophenoxy)benzyl)piperazine-1-carbonyl)-1H-pyrazole-3-carboxylic acid] | D (% inhibition is greater than or equal to 0% and less than 25%) | D (% inhibition is greater than or equal to 0% and less than 25%)
O=C(O)c1nn(C(=O)N2CCC3(CCN(Cc4cc(Cl)ccc4C(F)(F)F)C3)CC2)cc1Cl [Example 133, 4-chloro-1-(2-(5-chloro-2-(trifluoromethyl)benzyl)-2,8-diazaspiro[4.5]decane-8-carbonyl)-1H-pyrazole-3-carboxylic acid] | D (% inhibition is greater than or equal to 0% and less than 25%) | D (% inhibition is greater than or equal to 0% and less than 25%)
Cc1cn(C(=O)N2CCC3(CC2)CN(Cc2ccc(C(F)(F)F)cc2N2CCCC2)C3)nc1C(=O)O [Example 135, 4-methyl-1-(2-(2-(pyrrolidin-1-yl)-4-(trifluoromethyl)benzyl)-2,7-diazaspiro[3.5]no-nane-7-carbonyl)-1H-pyrazole-3-carboxylic acid] | D (% inhibition is greater than or equal to 0% and less than 25%) | D (% inhibition is greater than or equal to 0% and less than 25%)
O=C(O)c1nn(C(=O)N2CCC3(CCCN3Cc3cc4ccc(C(F)(F)F)cc4s3)CC2)cc1Cl [Example 139, 4-chloro-1-(1-((6-(trifluoromethyl)benzo[b]thiophen-2-yl)methyl)-1,8-diazaspiro[4.5]decane-8-carbonyl)-1H-pyrazole-3-carboxylic acid] | D (% inhibition is greater than or equal to 0% and less than 25%) | D (% inhibition is greater than or equal to 0% and less than 25%)
O=C(O)c1nn(C(=O)N2CC3CN(Cc4ccc(N5CCCC5)cc4C(F)(F)F)CC3C2)cc1Cl (stereo not drawn) [Example 140, 4-chloro-1-(5-(4-(pyrrolidin-1-yl)-2-(trifluoromethyl)benzyl)octahydro-pyrrolo[3,4-c]pyrrole-2-carbonyl)-1H-pyrazole-3-carboxylic acid] | D (% inhibition is greater than or equal to 0% and less than 25%) | D (% inhibition is greater than or equal to 0% and less than 25%)
O=C(O)c1nn(C(=O)N2CCC3(CCN(Cc4cc(Cl)ccc4C(F)(F)F)C3)CC2)cc1C(F)(F)F [Example 148, 1-(2-(5-chloro-2-(trifluoromethyl)benzyl)-2,8-diazaspiro[4.5]decane-8-carbonyl)-4-(trifluoromethyl)-1H-pyrazole-3-carboxylic acid] | D (% inhibition is greater than or equal to 0% and less than 25%) | C (% inhibition is greater than or equal to 25% and less than 50%)
O=C(O)c1ccn(C(=O)N2C[C@H]3C[C@H](OCc4cccc(C(F)(F)F)c4)C[C@H]3C2)n1 [Example 157, 1-(trans-5-((3-(trifluoromethyl)benzyl)oxy)octa-hydrocyclopenta[c]pyrrole-2-carbonyl)-1H-pyrazole-3-carboxylic acid] | D (% inhibition is greater than or equal to 0% and less than 25%) | D (% inhibition is greater than or equal to 0% and less than 25%)
O=C(O)c1ccn(C(=O)N2C[C@H]3C[C@H](OCc4cccc(Oc5ccc(Cl)cc5)c4)C[C@H]3C2)n1 [Example 158, 1-(trans-5-((3-(4-chlorophenoxy)benzyl)oxy)octa-hydrocyclopenta[c]pyrrole-2-carbonyl)-1H-pyrazole-3-carboxylic acid] | D (% inhibition is greater than or equal to 0% and less than 25%) | D (% inhibition is greater than or equal to 0% and less than 25%)
Cc1c(CO[C@H]2C[C@@H]3CN(C(=O)n4ccc(C(=O)O)n4)C[C@@H]3C2)cccc1C(F)(F)F [Example 159, 1-(trans-5-((2-methyl-3-(trifluoromethyl)benzyl)oxy)octa-hydrocyclopenta[c]pyrrole-2-carbonyl)-1H-pyrazole-3-carboxylic acid] | D (% inhibition is greater than or equal to 0% and less than 25%) | D (% inhibition is greater than or equal to 0% and less than 25%)
O=C(O)c1ccn(C(=O)N2CCC3(CCCN3Cc3cc4ccc(C(F)(F)F)cc4s3)CC2)n1 [Example 185, 1-(1-((6-(trifluoromethyl)-benzo[b]thiophen-2-yl)methyl)-1,8-diazaspiro[4.5]-decane-8-carbonyl)-1H-pyrazole-3-carboxylic acid] | D (% inhibition is greater than or equal to 0% and less than 25%) | D (% inhibition is greater than or equal to 0% and less than 25%)
O=C(O)c1ccn(C(=O)N2CCN(Cc3cc4cc(Cl)ccc4s3)CC2)n1 [Example 187, 1-(4-((5-chlorobenzo[b]thio-phen-2-yl)methyl)piperazine-1-carbonyl)-1H-pyrazole-3-carboxylic acid] | D (% inhibition is greater than or equal to 0% and less than 25%) | D (% inhibition is greater than or equal to 0% and less than 25%)
Cc1c(CN2CCN(C(=O)n3ccc(C(=O)O)n3)CC2)[nH]c2ccc(Cl)cc12 [Example 188, 1-(4-((5-chloro-3-methyl-1H-indol-2-yl)methyl)piperazine-1-carbonyl)-1H-pyrazole-3-carboxylic acid] | D (% inhibition is greater than or equal to 0% and less than 25%) | D (% inhibition is greater than or equal to 0% and less than 25%)
